Measured values as given in ChEMBL document CHEMBL2413041, “In search of potent and selective inhibitors of neuronal nitric oxide synthase with more simple structures” (Bioorg Med Chem, 2013).

Assays:
[1] = Selectivity ratio of Ki for recombinant bovine eNOS to Ki for recombinant rat nNOS
[2] = Selectivity ratio of Ki for recombinant mouse macrophage iNOS to Ki for recombinant rat nNOS
[3] = target: T1, Nitric oxide synthase, inducible (Mus musculus, UniProt P29477); experiment: Inhibition of recombinant mouse macrophage iNOS expressed in Escherichia coli using L-arginine as substrate assessed as formation of nitric oxide measured up to 60 secs by hemoglobin capture assay
T1 sequence (P29477 whole entry): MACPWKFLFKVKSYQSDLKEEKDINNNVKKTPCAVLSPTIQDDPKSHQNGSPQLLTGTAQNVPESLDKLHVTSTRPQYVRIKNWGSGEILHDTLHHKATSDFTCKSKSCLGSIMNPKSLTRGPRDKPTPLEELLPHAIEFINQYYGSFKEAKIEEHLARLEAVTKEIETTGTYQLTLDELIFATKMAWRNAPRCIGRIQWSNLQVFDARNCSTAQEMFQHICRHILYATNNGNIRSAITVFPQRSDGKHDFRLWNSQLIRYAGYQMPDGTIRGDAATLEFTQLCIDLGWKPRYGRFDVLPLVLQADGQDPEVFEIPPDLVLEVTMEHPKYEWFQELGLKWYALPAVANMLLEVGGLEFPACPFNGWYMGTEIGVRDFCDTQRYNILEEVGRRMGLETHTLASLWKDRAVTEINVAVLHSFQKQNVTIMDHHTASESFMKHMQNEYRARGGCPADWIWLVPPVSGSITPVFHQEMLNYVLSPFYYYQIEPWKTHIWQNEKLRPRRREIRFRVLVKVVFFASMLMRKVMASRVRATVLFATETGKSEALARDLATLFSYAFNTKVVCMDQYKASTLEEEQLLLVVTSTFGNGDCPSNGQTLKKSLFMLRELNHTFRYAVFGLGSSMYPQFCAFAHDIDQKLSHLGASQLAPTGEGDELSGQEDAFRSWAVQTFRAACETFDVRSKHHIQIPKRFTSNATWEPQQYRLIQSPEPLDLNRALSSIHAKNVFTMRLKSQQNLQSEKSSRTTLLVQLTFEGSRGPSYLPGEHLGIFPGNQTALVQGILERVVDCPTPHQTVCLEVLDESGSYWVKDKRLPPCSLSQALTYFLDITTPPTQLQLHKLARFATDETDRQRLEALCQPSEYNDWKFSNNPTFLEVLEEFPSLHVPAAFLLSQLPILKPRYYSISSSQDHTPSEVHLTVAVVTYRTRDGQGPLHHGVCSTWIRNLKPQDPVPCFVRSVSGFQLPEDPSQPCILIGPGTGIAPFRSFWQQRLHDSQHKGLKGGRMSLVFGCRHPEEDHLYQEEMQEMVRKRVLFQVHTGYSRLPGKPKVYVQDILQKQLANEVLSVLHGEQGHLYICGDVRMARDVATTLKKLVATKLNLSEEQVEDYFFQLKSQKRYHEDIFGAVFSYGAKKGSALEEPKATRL

Nitric oxide synthase 3 = target: T2, Nitric oxide synthase 3 (Bos taurus, UniProt P29473); experiment: Inhibition of recombinant bovine eNOS expressed in Escherichia coli using L-arginine as substrate assessed as formation of nitric oxide measured up to 60 secs by hemoglobin capture assay
T2 sequence (P29473 whole entry): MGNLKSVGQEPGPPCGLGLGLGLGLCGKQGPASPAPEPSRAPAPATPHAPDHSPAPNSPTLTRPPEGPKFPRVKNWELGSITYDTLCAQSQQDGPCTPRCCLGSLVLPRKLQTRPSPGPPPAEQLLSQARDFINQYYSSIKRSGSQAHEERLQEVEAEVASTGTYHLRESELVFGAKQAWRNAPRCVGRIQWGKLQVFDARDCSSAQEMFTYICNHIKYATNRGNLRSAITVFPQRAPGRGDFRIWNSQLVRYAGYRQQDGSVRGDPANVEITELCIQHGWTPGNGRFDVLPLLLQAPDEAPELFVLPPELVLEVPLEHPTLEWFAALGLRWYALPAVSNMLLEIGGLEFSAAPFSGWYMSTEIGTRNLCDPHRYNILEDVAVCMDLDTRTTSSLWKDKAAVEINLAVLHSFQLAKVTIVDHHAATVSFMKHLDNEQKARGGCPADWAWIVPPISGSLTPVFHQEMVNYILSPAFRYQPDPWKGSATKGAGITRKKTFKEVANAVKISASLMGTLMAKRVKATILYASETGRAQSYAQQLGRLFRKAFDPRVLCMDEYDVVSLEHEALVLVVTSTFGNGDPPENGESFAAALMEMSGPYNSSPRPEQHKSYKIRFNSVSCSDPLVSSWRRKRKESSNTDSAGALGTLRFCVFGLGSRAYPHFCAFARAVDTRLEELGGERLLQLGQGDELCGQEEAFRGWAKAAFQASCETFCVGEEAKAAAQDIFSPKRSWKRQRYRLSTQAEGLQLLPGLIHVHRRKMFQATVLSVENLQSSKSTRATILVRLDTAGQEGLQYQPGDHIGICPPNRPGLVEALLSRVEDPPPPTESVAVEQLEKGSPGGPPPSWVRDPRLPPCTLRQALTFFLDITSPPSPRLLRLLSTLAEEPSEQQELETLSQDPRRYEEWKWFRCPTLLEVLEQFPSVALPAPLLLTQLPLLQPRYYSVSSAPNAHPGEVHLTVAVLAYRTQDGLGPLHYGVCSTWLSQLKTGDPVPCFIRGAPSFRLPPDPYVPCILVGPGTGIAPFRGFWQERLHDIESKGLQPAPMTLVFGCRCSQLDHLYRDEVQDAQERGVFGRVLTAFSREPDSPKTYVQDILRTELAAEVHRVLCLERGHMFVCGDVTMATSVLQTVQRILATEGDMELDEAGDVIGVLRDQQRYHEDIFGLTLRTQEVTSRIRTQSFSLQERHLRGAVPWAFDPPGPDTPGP

Nitric oxide synthase 1 = Nitric oxide synthase 1 (Rattus norvegicus, UniProt P29476); experiment: Inhibition of recombinant rat nNOS expressed in Escherichia coli using L-arginine as substrate assessed as formation of nitric oxide measured up to 60 secs by hemoglobin capture assay
Nitric oxide synthase 1, sequence (P29476 whole entry): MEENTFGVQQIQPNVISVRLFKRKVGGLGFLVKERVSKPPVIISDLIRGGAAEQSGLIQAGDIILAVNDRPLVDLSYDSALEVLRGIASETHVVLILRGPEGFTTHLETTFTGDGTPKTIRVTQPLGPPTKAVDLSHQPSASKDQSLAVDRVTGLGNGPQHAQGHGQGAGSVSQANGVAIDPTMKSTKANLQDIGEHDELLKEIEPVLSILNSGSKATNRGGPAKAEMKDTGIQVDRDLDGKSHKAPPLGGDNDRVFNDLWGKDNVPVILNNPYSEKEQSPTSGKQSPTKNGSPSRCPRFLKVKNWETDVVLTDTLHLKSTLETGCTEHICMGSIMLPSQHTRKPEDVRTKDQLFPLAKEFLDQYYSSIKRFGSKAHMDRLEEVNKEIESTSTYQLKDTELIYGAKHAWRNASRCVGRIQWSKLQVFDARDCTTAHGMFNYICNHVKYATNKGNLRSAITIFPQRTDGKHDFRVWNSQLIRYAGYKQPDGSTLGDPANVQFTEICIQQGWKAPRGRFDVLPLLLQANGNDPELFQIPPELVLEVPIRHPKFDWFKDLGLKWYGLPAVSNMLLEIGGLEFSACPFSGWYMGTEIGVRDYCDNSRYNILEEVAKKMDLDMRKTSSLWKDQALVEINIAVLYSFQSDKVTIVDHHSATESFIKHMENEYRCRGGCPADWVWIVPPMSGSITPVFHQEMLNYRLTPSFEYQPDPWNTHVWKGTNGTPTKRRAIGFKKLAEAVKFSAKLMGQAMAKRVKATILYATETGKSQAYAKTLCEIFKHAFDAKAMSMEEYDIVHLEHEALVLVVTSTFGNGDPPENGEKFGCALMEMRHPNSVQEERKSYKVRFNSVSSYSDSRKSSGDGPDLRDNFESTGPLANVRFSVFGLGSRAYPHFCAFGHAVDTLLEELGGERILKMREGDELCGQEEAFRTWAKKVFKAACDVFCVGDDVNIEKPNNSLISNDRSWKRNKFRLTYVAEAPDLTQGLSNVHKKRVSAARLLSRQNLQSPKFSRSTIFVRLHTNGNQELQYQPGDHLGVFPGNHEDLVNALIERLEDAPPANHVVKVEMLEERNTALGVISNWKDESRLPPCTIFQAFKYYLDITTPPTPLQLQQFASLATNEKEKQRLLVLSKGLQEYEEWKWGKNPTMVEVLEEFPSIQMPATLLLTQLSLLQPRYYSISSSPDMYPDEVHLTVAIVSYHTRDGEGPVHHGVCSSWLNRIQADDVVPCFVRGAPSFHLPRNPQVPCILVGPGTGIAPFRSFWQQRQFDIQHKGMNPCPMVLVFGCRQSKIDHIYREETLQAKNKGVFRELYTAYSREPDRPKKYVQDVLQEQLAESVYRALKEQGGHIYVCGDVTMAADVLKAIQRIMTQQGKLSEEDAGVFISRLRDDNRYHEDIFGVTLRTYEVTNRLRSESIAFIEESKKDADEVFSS

Row | Compound | Ratio Ki [1] | Ratio Ki [2] | Ki [3] [µM] | Ki (Nitric oxide synthase 3) [µM] | Ki (Nitric oxide synthase 1) [µM]
1 | Cc1cc(N)nc(COCc2cccc(CNCCc3cccc(F)c3)n2)c1 | 21 | 31 | 8.43 | 5.62 | 0.27
2 | Cc1cc(N)nc(CCCCCCCc2cc(C)cc(N)n2)c1 | 25 | 25 | 2.19 | 2.15 | 0.086
3 | Cc1cc(N)nc(COc2cccc(OCC3CCNCC3)c2)c1 | 239 | 146 | – | – | –
4 | Cc1cc(N)nc(COc2ccccc2-c2ccccc2OCc2ccncc2)c1 | – | – | – | – | 3.85
5 | Cc1cc(N)nc(COc2cccc(NCCc3cccc(F)c3)c2)c1 | – | – | – | – | 2.16
6 | Cc1cc(N)nc(COc2ccccc2-c2ccccc2OCC2CCNCC2)c1 | – | – | – | – | 4.23

The remaining lines, values ahead:

Row | Ratio Ki [1] | Ratio Ki [2] | Ki [3] [µM] | Ki (Nitric oxide synthase 3) [µM] | Ki (Nitric oxide synthase 1) [µM] | Compound
7 | 102 | 44 | – | – | – | Cc1cc(N)nc(COc2cccc(OCc3ccncc3)c2)c1
8 | – | – | 0.375 | – | – | Cc1cc(N)nc(CCCCCc2cc(C)cc(N)n2)c1
9 | 298 | 140 | – | – | – | Cc1cc(N)nc(COc2cccc(OCCCN)c2)c1
10 | 86 | 54 | 1.8 | 2.84 | 0.033 | Cc1cc(N)nc(CCCCCCc2cc(C)cc(N)n2)c1
